Data taken from patent US20210139507A1, “FUSED PYRIDINES WHICH ACT AS INHIBITORS OF H PGDS” (GlaxoSmithKline Intellectual Property Development Limited, priority 2017, published 2021).

How the values were obtained:
male mdx mice = experiment: In vivo assay for functional response to muscle injury (eccentric contraction-induced muscle fatigue); design: species or system mouse; details: 7 months of age, PO 0.1, 1 and 10 mg/kg QD beginning 10 min prior to challenge, versus vehicle, FIG. 1
Description: Under anesthesia, the right hind limb of a mouse is restrained at the knee and the foot attached to a motorized footplate/force transducer. Needle electrodes are inserted into the upper limb, either side of the sciatic nerve and a current sufficient to elicit a maximal muscle contraction is applied. Muscle tension is produced by moving the footplate to lengthen the plantarflexor muscles while the limb is under maximal stimulation. This is repeated 60 times to fatigue the muscles of the lower limb. Anesthesia, limb immobilization and limb stimulation are then repeated at regular intervals to measure maximal isometric force in the recovering limb. 7 to 9 animals are tested for each test condition.

[1] = target: T1, hematopoietic prostaglandin D synthase (H-PGDS) (Homo sapiens, UniProt O60760); experiment: H-PGDS RapidFire High Throughput Mass Spectrometry Assay; assay type: biochemical; details: conversion of PGH2 to PGD2 by human H-PGDS, 10 nM enzyme; for IC50: mean pIC50, read-out: Potency Range (mean pIC50) (converted)
T1 construct: Full length human H-PGDS cDNA (Invitrogen Ultimate ORF IOH13026) was amplified by PCR; 6-His (N); TEV protease cleavage site (N); made in house; host or cells: E. coli BL21 (DE3*), vector pET22b+
T1 sequence (O60760 whole entry): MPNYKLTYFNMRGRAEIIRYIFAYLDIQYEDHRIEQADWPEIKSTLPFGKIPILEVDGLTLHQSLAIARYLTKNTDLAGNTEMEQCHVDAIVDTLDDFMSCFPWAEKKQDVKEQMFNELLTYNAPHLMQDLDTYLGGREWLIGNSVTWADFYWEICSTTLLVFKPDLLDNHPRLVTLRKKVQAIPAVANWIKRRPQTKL
Method: The H-PGDS RapidFire™ mass spectrometric assay monitors conversion of prostaglandin H2 (PGH2) to prostaglandin D2 (PGD2) by hematopoietic prostaglandin D synthase (H-PGDS). In the assay format described here, the substrate (PGH2) is formed in situ by the action of cyclooxygenase-2 on arachidonic acid. This first step is set up to be fast, and generates a burst of PGH2 at ˜10 μM. The PGH2 is then further converted to PGD2 by the H-PGDS enzyme. […] Plates are then read on the RapidFire™ high throughput solid phase extraction system (Agilent) which incorporates a solid phase extraction step coupled to a triple quadrupole mass spectrometer (AB SCIEX). Relative levels of PGD2 and PGF2α, which acts as a surrogate for substrate, are measured and a percent conversion calculated. Inhibitors are characterized as compounds which lower the conversion of PGH2 to PGD2.
Full length human H-PGDS cDNA (Invitrogen Ultimate ORF IOH13026) was amplified by PCR with the addition of a 5′ 6-His tag and TEV protease cleavage site. The PCR product was digested with NdeI and XhoI and ligated into pET22b+ (Merck Novagen®). Expression was carried out in E. coli strain BL21 (DE3*) using auto-induction Overnight Express™ Instant TB medium (Merck Novagen®) supplemented with 1% glycerol. The culture was first grown at 37° C. and the temperature was reduced to 25° C. when OD600 reached 2.0. Cells were harvested by centrifugation after a further 18 hours. 10 g of E. coli cell pellet was suspended to a total volume of 80 mL in lysis buffer (20 mM Tris-Cl pH 7.5, 300 mM NaCl, 20 mM imidazole, 5 mM β-mercaptoethanol, 10% glycerol). 1 mg/mL protease inhibitors (Protease Inhibitor Cocktail Set III, Merck Calbiochem®) and 1 mg/mL lysozyme were added to the cell suspension. The suspension was then sonicated for 5 min (Ultrasonic Processor VCX 750, Cole-Parmer Instrument Co.) with a micro probe (50% amplitude, 10 sec on/off) and then centrifuged at 100,000 g for 90 minutes (at 4° C.). The supernatant was loaded onto a Ni-NTA HiTrap column (5 mL, GE Healthcare, pre-equilibrated in lysis buffer). The column was washed with 10 column volumes of lysis buffer and eluted with lysis buffer containing 500 mM imidazole. The pooled protein peak fractions were concentrated using a 10 kDa centrifugal filter at 3500 g and 4° C. (Amicon Ultra-15 centrifugal filter unit with Ultracel-10 membrane from Millipore). Further purification of the concentrated protein was carried out using gel filtration chromatography on a HiLoad 26/600 Superdex75 preparative grade column (GE Healthcare Life Sciences) using 50 mM Tris pH 7.5, 50 mM NaCl, 1 mM dithiothreitol, 1 mM MgCl2. Fractions containing the protein were pooled, concentrated as described above, and stored at −80° C.
The full length human COX-2 gene (accession number L15326) was amplified by PCR to generate an EcoRI-Hindi 11 fragment containing an in-frame FLAG tag. This was subcloned into pFastBac 1 (Invitrogen). The COX-2 FLAG plasmid was recombined into the baculovirus genome according to the BAC-to-BAC protocol described by Invitrogen. Transfection into Spodoptera frugiperda (Sf9) insect cells was performed using Cellfectin (Invitrogen), according to the manufacturer's protocol. Super Sf9 cells were cultured in EX420 media (SAFC Biosciences) to a density of approximately 1.5×10^6 cells/mL within a wave bioreactor. Recombinant virus was added at a Multiplicity of Infection (MOI) of 5 and the culture was allowed to continue for 3 days. Cells were harvested using a continuous feed centrifuge run at 2500 g at a rate of approximately 2 L/min with cooling. The resultant cell slurry was re-centrifuged in pots (2500 g, 20 min, 4° C.) and the cell paste was stored at −80° C. 342 g of cell paste was re-suspended to a final volume of 1600 mL in a buffer of 20 mM Tris-Cl pH 7.4, 150 mM NaCl, 0.1 mM EDTA, 1.3% w/v n-octyl-β-D-glucopyranoside containing 20 Complete EDTA-free Protease Inhibitor Cocktail tablets (Roche Applied Science). […]

For `CC(C)(O)[C@H]1CC[C@H](NC(=O)c2cnc3nc(C4CC4)sc3c2)CC1` [Example 8], the “kinetics of recovery of maximal isometric torque after eccentric contraction challenge” value (male mdx mice) was “exhibited an acceleration in the kinetics of recovery” and the IC50 [1] was 10 to 79.4 nM.
Compound `CC(C)c1nc2ncc(C(=O)N[C@H]3CC[C@H](C(C)(C)O)CC3)cc2s1` [Example 30, N-(trans-4-(2-Hydroxypropan-2-yl)cyclohexyl)-2-isopropylthiazolo[4,5-b]pyridine-6-carboxamide] has an IC50 [1] of 100 to 1000 nM.
In the case of `Cn1nnnc1N1CCC(NC(=O)c2cnc3nc(C4CC4)sc3c2)CC1` [Example 31, 2-Cyclopropyl-N-(1-(1-methyl-1H-tetrazol-5-yl)piperidin-4-yl)thiazolo[4,5-b]pyridine-6-carboxamide], the IC50 [1] is reported as 100 to 1000 nM.
`CC(C)(O)[C@H]1CC[C@H](NC(=O)c2cnc3nc(N4CCCC4)sc3c2)CC1` [Example 33, N-(trans-4-(2-Hydroxypropan-2-yl)cyclohexyl)-2-(pyrrolidin-1-yl)thiazolo[4,5-b]pyridine-6-carboxamide] was tested, and the IC50 [1] was 100 to 1000 nM.
In the case of `C[C@H]1CCN1c1nc2ncc(C(=O)N[C@H]3CC[C@H](C(C)(C)O)CC3)cc2s1` [Example 34, N-(trans-4-(2-Hydroxypropan-2-yl)cyclohexyl)-2-((S)-2-methylazetidin-1-yl)thiazolo[4,5-b]pyridine-6-carboxamide], the IC50 [1] is reported as 10 to 79.4 nM.
`CN(c1nc2ncc(C(=O)N[C@H]3CC[C@H](C(C)(C)O)CC3)cc2s1)C1CC1` [Example 35, 2-(Cyclopropyl(methyl)amino)-N-(trans-4-(2-hydroxypropan-2-yl)cyclohexyl)thiazolo[4,5-b]pyridine-6-carboxamide] showed an IC50 [1] of 100 to 1000 nM.
Work on `CC(C)(O)[C@H]1CC[C@H](NC(=O)c2cnc3nc(N(C4CC4)C4CC4)sc3c2)CC1` [Example 36, 2-(Dicyclopropylamino)-N-(trans-4-(2-hydroxypropan-2-yl)cyclohexyl)thiazolo[4,5-b]pyridine-6-carboxamide] yielded an IC50 [1] of 1260 to 10000 nM.
In the case of `CC(C)N(c1nc2ncc(C(=O)N[C@H]3CC[C@H](C(C)(C)O)CC3)cc2s1)C(C)C` [Example 37, 2-(Diisopropylamino)-N-(trans-4-(2-hydroxypropan-2-yl)cyclohexyl)thiazolo[4,5-b]pyridine-6-carboxamide], the IC50 [1] is reported as 1260 to 10000 nM.
Work on `CN(c1nc2ncc(C(=O)N[C@H]3CC[C@H](C(C)(C)O)CC3)cc2s1)C(C)(C)C` [Example 38, 2-(tert-Butyl(methyl)amino)-N-(trans-4-(2-hydroxypropan-2-yl)cyclohexyl)thiazolo[4,5-b]pyridine-6-carboxamide] yielded an IC50 [1] of 100 to 1000 nM.
`CSc1nc2ncc(C(=O)N[C@H]3CC[C@H](C(C)(C)O)CC3)cc2s1` [Example 39, N-((trans)-4-(2-Hydroxypropan-2-yl)cyclohexyl)-2-(methylthio)thiazolo[4,5-b]pyridine-6-carboxamide] showed an IC50 [1] of 10 to 79.4 nM.
For `COc1nc2ncc(C(=O)N[C@H]3CC[C@H](C(C)(C)O)CC3)cc2s1` [Example 40, N-((trans)-4-(2-Hydroxypropan-2-yl)cyclohexyl)-2-methoxythiazolo[4,5-b]pyridine-6-carboxamide], the IC50 [1] was 100 to 1000 nM.
In the case of “N-(trans-4-(2-Hydroxypropan-2-yl)cyclohexyl)-2-((1S,2R)-2-methylcyclopropyl)thieno[3,2-b]pyridine-6-carboxamide and N-(trans-4-(2-hydroxypropan-2-yl)cyclohexyl)-2-((1R,2S)-2-methylcyclopropyl)thieno[3,2-b]pyridine-6-carboxamide [Example 10]”, the “Potency Range (mean pIC50)” value [1] is reported as “*** (*** = pIC50 7.1-8.0)”.
